Experimental data: publication PMC8409973, “Synthesis, antiproliferative and antitrypanosomal activities, and DNA binding of novel 6-amidino-2-arylbenzothiazoles” (Journal of Enzyme Inhibition and Medicinal Chemistry, 2021)
Where a name gives a salt, the structure may show the parent alone.

Tests used:
[1] = tested on: SW620 (colorectal adenocarcinoma, metastatic); test: Proliferation assay (MTT, 72 h) on SW620; type: cell-based; conditions: Homo sapiens, SW-620, SW620, 72 h
Method: (§1) Human cell lines SW620 (colorectal adenocarcinoma, metastatic), MCF-7 (human breast adenocarcinoma), CFPAC-1 (pancreatic adenocarcinoma), HeLa (cervical carcinoma), and HFF-1 (human foreskin fibroblasts) were obtained from the American Type Culture Collection (ATCC). Cells were cultured in a humidified atmosphere at 37 °C with 5% CO2. As a growth medium, Dulbecco’s modified Eagle medium (DMEM) was used with the addition of foetal bovine serum (10%), L-glutamine (2 mM), and antibiotics: streptomycin ([…]) and penicillin (100 U/ml).
(§2) Cells were seeded onto 96-well microtiter plates at a seeding density of 3000 cells/well for carcinoma cell lines, and 5000 cells/well for normal human fibroblasts. The next day, cells were treated with test agents at five different concentrations (0.01–100 µM) and further incubated for 72 h. […] 5-Fluorouracil (5-FU, 0.384 M fluorouracilum, Pliva 500 mg/10 ml) dissolved in physiological solution was used as a positive control. Following 72 h incubation, the MTT assay was performed and measured absorbances were transformed into a percentage of cell growth as described previously. Results were obtained from three independent experiments. IC50 values were calculated using linear regression analysis (FORECAST option taking into account the concentration range of two experimental points above and below IC50).

[2] = tested on: CFPAC-1 (pancreatic adenocarcinoma); test: Proliferation assay (MTT, 72 h) on CFPAC-1; type: cell-based; conditions: Homo sapiens, CFPAC-1, 72 h
Method: as §1, §2

[3] = tested on: MCF-7 (human breast adenocarcinoma); test: Proliferation assay (MTT, 72 h) on MCF-7; type: cell-based; conditions: MCF7, MCF-7, 72 h
Method: as §1, §2

[4] = tested on: HeLa (cervical carcinoma); test: Proliferation assay (MTT, 72 h) on HeLa; type: cell-based; conditions: Homo sapiens
Method: as §1, §2

[5] = tested on: HFF-1 (human foreskin fibroblasts); test: Proliferation assay (MTT, 72 h) on normal fibroblasts HFF-1; type: cell-based; conditions: HFF-1 normal fibroblasts
Method: as §1, §2

| SMILES | melting point [°C] | IC50 [1] [µM] | IC50 [2] [µM] | IC50 [3] [µM] | IC50 [4] [µM] | IC50 [5] [µM] |
| --- | --- | --- | --- | --- | --- | --- |
| N=C(N)c1ccc2nc(-c3ccc(OCc4cn(-c5ccccc5)nn4)cc3)sc2c1 (as salt: methanesulfonate) [10a] | 272 to 275 | – | – | – | – | – |
| N=C(N)c1ccc2nc(-c3ccc(OCc4cn(-c5ccc(Cl)cc5)nn4)cc3)sc2c1 (as salt: methanesulfonate) [10b] | 276 to 279 | – | – | – | – | – |
| COc1ccc(-n2cc(COc3ccc(-c4nc5ccc(C(=N)N)cc5s4)cc3)nn2)cc1 (as salt: methanesulfonate) [10c] | 265 to 270 | – | – | – | – | – |
| N=C(N)c1ccc2nc(-c3ccc(OCc4cn(Cc5ccccc5)nn4)cc3)sc2c1 (as salt: methanesulfonate) [10d] | 253 to 257 | – | – | – | – | – |
| N=C(N)c1ccc2nc(-c3cn(-c4ccccc4)nn3)sc2c1 (as salt: methanesulfonate) [13a, 6-Amidinium-2-(1-phenyl-1H-1,2,3-triazole-4-yl)benzothiazole methanesulfonate] | 289 to 293 | – | – | – | – | – |
| N=C(N)c1ccc2nc(-c3cn(-c4ccc(Cl)cc4)nn3)sc2c1 (as salt: methanesulfonate) [13b, 6-Amidinium-2-[1-(4-chlorophenyl)-1H-1,2,3-triazole-4-yl]benzothiazole methanesulfonate] | > 300 | – | – | – | – | – |
| COc1ccc(-n2cc(-c3nc4ccc(C(=N)N)cc4s3)nn2)cc1 (as salt: methanesulfonate) [13c, 6-Amidinium-2-[1-(4-methoxyphenyl)-1H-1,2,3-triazole-4-yl]benzothiazole methanesulfonate] | > 300 | – | – | – | – | – |
| N=C(N)c1ccc2nc(-c3cn(Cc4ccccc4)nn3)sc2c1 (as salt: methanesulfonate) [13d, 6-Amidinium-2-(1-benzyl-1H-1,2,3-triazole-4-yl)benzothiazole methanesulfonate] | 262 to 267 | – | – | – | – | – |
| N=C(N)c1ccc2nc(-c3ccc(OCc4cn(Cc5ccccc5)nn4)cc3)sc2c1 [10d] | – | 1.18 ± 0.18 | 5.15 ± 0.23 | 3.02 ± 0.98 | 1.77 ± 0.45 | 0.76 ± 0.18 |
| CS(=O)(=O)O.c1ccc(-n2cc(COc3nc4ccc(C5=NCCCN5)cc4s3)nn2)cc1 [12a, 6-(3,4,5,6-Tetrahydropyrimidin-1-ium-2-yl)-2-[(1-phenyl-1H-1,2,3-triazol-4-yl)methoxy] benzothiazole methanesulfonate] | 249 to 254 | 4.17 ± 0.28 | 3.98 ± 0.29 | 3.98 ± 0.04 | 2.95 ± 0.38 | 0.44 ± 0.03 |
| CS(=O)(=O)O.c1ccc(Cn2cc(COc3nc4ccc(C5=NCCCN5)cc4s3)nn2)cc1 [12d, 6-(3,4,5,6-Tetrahydropyrimidin-1-ium-2-yl)-2-[(1-benzyl-1H-1,2,3-triazol-4-yl)methoxy]benzothiazole methanesulfonate] | 197 to 199 | 7.94 ± 2.58 | 23.4 ± 0.29 | 6.01 ± 0.53 | 8.6 ± 0.85 | 1.74 ± 0.29 |
| COc1ccc(-n2cc(-c3nc4ccc(C(=N)N)cc4s3)nn2)cc1 [13c, 6-Amidinium-2-[1-(4-methoxyphenyl)-1H-1,2,3-triazole-4-yl]benzothiazole methanesulfonate] | – | 5.39 ± 0.41 | 5.23 ± 0.87 | 4.5 ± 0.43 | 3.64 ± 1.44 | 2.99 ± 1.17 |
| N=C(N)c1ccc2nc(-c3cn(Cc4ccccc4)nn3)sc2c1 [13d, 6-Amidinium-2-(1-benzyl-1H-1,2,3-triazole-4-yl)benzothiazole methanesulfonate] | – | 9.48 ± 0.29 | 25.9 ± 3.71 | 22.6 ± 0.91 | 14.9 ± 1.54 | 4.04 ± 1.35 |
| CS(=O)(=O)O.c1ccc(-n2cc(-c3nc4ccc(C5=NCCCN5)cc4s3)nn2)cc1 [15a, 6-(3,4,5,6-Tetrahydropyrimidin-1-ium-2-yl)-2-(1-phenyl-1H-1,2,3-triazole-4-yl)benzothiazole methanesulfonate] | 269 to 274 | 4.15 ± 1.58 | 37.6 ± 4.58 | 8.31 ± 0.12 | 7.62 ± 0.84 | 0.53 ± 0.1 |
